Experimental data from ChEMBL document CHEMBL5725500, “Substituted spiropiperidinyl compounds useful as GPR120 agonists” (2017).
pEC50: −log10 of the molar value.

molecular target: T1, Free fatty acid receptor 4 (Homo sapiens, UniProt Q5NUL3); assay: FLIPR Assay: On the day before the measurement day, CHO cells expressing human GPR120 were plated at 10000 cells per well in a 384-well black plate (#3702, Corning) and incubated overnight in a CO2 incubator. On the day of the measurement, 4 μM Fluo-4 AM (fluorescence calcium indicator reagent) was incubated to be introduced into the human GPR120 expression CHO cells in the presence of 0.08% Pluronic F-127 in a CO2 incubator for 90 minutes. To the cells was added the test compound diluted with HBSS solution containing 20 mM HEPES and 2.5 mM probenecid. Variations in the intracellular calcium concentration were measured by Fluorescence Imaging Plate Reader (FLIPR; Molecular Devices) to examine the agonist action, and EC50 values were calculated.; format: cell-based
T1 sequence (Q5NUL3 whole entry): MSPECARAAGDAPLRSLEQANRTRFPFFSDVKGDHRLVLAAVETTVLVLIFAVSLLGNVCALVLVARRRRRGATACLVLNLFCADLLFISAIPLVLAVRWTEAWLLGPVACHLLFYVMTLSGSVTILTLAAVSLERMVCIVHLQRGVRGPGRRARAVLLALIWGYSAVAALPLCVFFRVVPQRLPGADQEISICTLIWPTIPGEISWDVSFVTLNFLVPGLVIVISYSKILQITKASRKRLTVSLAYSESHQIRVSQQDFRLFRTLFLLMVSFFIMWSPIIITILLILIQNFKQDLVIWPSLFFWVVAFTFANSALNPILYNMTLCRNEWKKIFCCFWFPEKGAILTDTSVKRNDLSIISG

Structure (SMILES)	pEC50
O=C(O)CC1CCC2(CCN(c3cc(OC(F)(F)F)ccc3F)CC2)OC1 (configuration not stated)	5.92
Cc1cccc(Oc2ccc(C#N)c(N3CCC4(CCC(CC(=O)O)CC4)CC3)c2)n1	5.37
O=C(O)C[C@@H]1CCC2(CCN(c3cc(OC4CCC4)ccc3F)CC2)OC1	5.49
O=C(O)C[C@H]1CCC2(CCN(c3cc(OC4CCC4)ccc3Cl)CC2)OC1	5.78
Cc1ccnc(Oc2ccc(C#N)c(N3CCC4(CCC(CC(=O)O)CC4)CC3)c2)c1	5.30
COc1cc(F)cc(N2CCC3(CC2)CC(CC(=O)O)CO3)c1 (configuration not stated)	5.62
OCCC1CCC2(CC1)CCN(c1cc(OC(F)(F)F)ccc1Cl)CC2	6.33
